The record followed here is patent US20230365592A1 (Agios Pharmaceuticals, Inc., priority 2022, published 2023).

For orientation: AC50 means the midpoint of the concentration-response curve, whichever way the signal moves.

In this test the target is T1, human PAH with the R408W mutation (Homo sapiens, UniProt P00439, R408W).
T1 construct: expressed in transfected cells
T1 sequence (P00439 1-452 R408W): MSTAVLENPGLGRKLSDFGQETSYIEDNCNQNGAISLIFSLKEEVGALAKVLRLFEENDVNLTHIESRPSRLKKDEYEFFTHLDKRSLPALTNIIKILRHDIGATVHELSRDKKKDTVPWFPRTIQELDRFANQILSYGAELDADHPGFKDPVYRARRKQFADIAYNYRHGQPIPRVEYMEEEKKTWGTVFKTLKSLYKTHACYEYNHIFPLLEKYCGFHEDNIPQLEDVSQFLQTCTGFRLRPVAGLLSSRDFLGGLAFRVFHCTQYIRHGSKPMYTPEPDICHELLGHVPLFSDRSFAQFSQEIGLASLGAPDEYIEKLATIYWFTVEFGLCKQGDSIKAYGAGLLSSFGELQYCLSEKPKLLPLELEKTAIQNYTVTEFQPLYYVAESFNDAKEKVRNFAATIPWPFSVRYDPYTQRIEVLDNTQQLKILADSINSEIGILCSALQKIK
The test can be described thus: Cell Based Phenylalanine Flux Assay.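 Further: after compound treatment, cells received sepiapterin plus isotope-labelled Phenylalanine for 4 hours, then labelled Tyrosine in the medium was quantified, 10-point 2-fold dilution series run in duplicate.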 The settings on record: A375 cells expressing human PAH R408W; 24 hrs compound incubation; 13C-Tyrosine by LC-MS; average where tested multiple times; read-out: AC50.
Regarding `c1cc(C2CC2)c2cc([C@@H]3c4nc[nH]c4CCN3c3nnc(C4CC4)o3)nn2c1` [Example 2059, (S)-2-cyclopropyl-5-(4-(4-cyclopropylpyrazolo[1,5-a]pyridin-2-yl)-1,4,6,7-tetrahydro-5H-imidazo[4,5-c]pyridin-5-yl)-1,3,4-oxadiazole], the AC50 fell in the range of 500 to 1000 nM. In the case of `CC(C)(F)c1nnc(C(=O)N2CCc3[nH]cnc3[C@H]2c2cc3c(C4CC4)cccn3n2)o1` [Example 2061, (S)-(4-(4-cyclopropylpyrazolo[1,5-a]pyridin-2-yl)-1,4,6,7-tetrahydro-5H-imidazo[4,5-c]pyridin-5-yl)(5-(2-fluoropropan-2-yl)-1,3,4-oxadiazol-2-yl)methanone], the AC50 lay in the range of 500 to 1000 nM. `Fc1cccc(F)c1-c1nnc(N2CCc3[nH]cnc3[C@H]2c2cc3c(Cl)cccn3n2)o1` [Example 2063, (S)-2-(4-(4-chloropyrazolo[1,5-a]pyridin-2-yl)-1,4,6,7-tetrahydro-5H-imidazo[4,5-c]pyridin-5-yl)-5-(2,6-difluorophenyl)-1,3,4-oxadiazole]: the AC50 is less than 500 nM.

`Cc1c(-c2ncc(C(=O)N3CCc4[nH]cnc4[C@H]3c3cc4c(F)cccn4n3)o2)cnn1C` [Example 2066, (S)-(2-(1,5-dimethyl-1H-pyrazol-4-yl)oxazol-5-yl)(4-(4-fluoropyrazolo[1,5-a]pyridin-2-yl)-1,4,6,7-tetrahydro-5H-imidazo[4,5-c]pyridin-5-yl)methanone]: the AC50 lay in the range of 500 to 1000 nM. Regarding `Cc1c(-c2ncc(C(=O)N3CCc4[nH]cnc4[C@@H]3c3cc4c(F)cccn4n3)o2)cnn1C` [Example 2067, (R)-(2-(1,5-dimethyl-1H-pyrazol-4-yl)oxazol-5-yl)(4-(4-fluoropyrazolo[1,5-a]pyridin-2-yl)-1,4,6,7-tetrahydro-5H-imidazo[4,5-c]pyridin-5-yl)methanone], the AC50 is greater than 5000 nM.

Take `Cc1c(-c2ncc(C(=O)N3CCc4[nH]cnc4[C@H]3c3cc4c(C(F)F)cccn4n3)o2)cnn1C` [Example 2068, (S)-(4-(4-(difluoromethyl)pyrazolo[1,5-a]pyridin-2-yl)-1,4,6,7-tetrahydro-5H-imidazo[4,5-c]pyridin-5-yl)(2-(1,5-dimethyl-1H-pyrazol-4-yl)oxazol-5-yl)methanone]: the AC50 was 500 to 1000 nM. Turning to `Cc1cccc2cc([C@@H]3c4nc[nH]c4CCN3C(=O)c3ocnc3C3CC3)nn12` [Example 2070, (S)-(4-cyclopropyloxazol-5-yl)(4-(7-methylpyrazolo[1,5-a]pyridin-2-yl)-1,4,6,7-tetrahydro-5H-imidazo[4,5-c]pyridin-5-yl)methanone], the AC50 is less than 500 nM.

Take `Cn1cc(-c2nc(C3CC3)c(C(=O)N3CCc4[nH]cnc4[C@@H]3c3cc4c(F)cccn4n3)o2)cn1` [Example 2072, (R)-(4-cyclopropyl-2-(1-methyl-1H-pyrazol-4-yl)oxazol-5-yl)(4-(4-fluoropyrazolo[1,5-a]pyridin-2-yl)-1,4,6,7-tetrahydro-5H-imidazo[4,5-c]pyridin-5-yl)methanone]: the AC50 was greater than 5000 nM.

Take `Cn1cc(-c2nc(C3CC3)c(C(=O)N3CCc4[nH]cnc4[C@H]3c3cc4c(F)cccn4n3)o2)cn1` [Example 2073, (S)-(4-cyclopropyl-2-(1-methyl-1H-pyrazol-4-yl)oxazol-5-yl)(4-(4-fluoropyrazolo[1,5-a]pyridin-2-yl)-1,4,6,7-tetrahydro-5H-imidazo[4,5-c]pyridin-5-yl)methanone]: the AC50 fell in the range of 500 to 1000 nM. In the case of `Cc1cccn2nc([C@@H]3c4nc[nH]c4CCN3C(=O)c3oc(-c4cnn(C)c4)nc3C3CC3)cc12` [Example 2074], the AC50 was less than 500 nM. `O=C(c1ncco1)N1CCc2[nH]cnc2[C@H]1c1cc2c(C(F)F)cccn2n1` [Example 2076, (S)-(4-(4-(difluoromethyl)pyrazolo[1,5-a]pyridin-2-yl)-1,4,6,7-tetrahydro-5H-imidazo[4,5-c]pyridin-5-yl)(oxazol-2-yl)methanone]: the concentration at half-maximal activity (AC50) lay in the range of 500 to 1000 nM. With `O=C(c1ncco1)N1CCc2[nH]cnc2[C@@H]1c1cc2c(C(F)F)cccn2n1` [Example 2077, (R)-(4-(4-(difluoromethyl)pyrazolo[1,5-a]pyridin-2-yl)-1,4,6,7-tetrahydro-5H-imidazo[4,5-c]pyridin-5-yl)(oxazol-2-yl)methanone], the AC50 is greater than 5000 nM.

Take `O=C(c1ncco1)N1CCc2[nH]cnc2[C@H]1c1cc2c(C(F)(F)F)cccn2n1` [Example 2078, (S)-oxazol-2-yl(4-(4-(trifluoromethyl)pyrazolo[1,5-a]pyridin-2-yl)-1,4,6,7-tetrahydro-5H-imidazo[4,5-c]pyridin-5-yl)methanone]: the AC50 lay within 500 to 1000 nM. For `O=C(C1CCC1)N1CCc2[nH]cnc2[C@H]1c1cc2c(F)cccn2n1` [Example 2080, (S)-cyclobutyl(4-(4-fluoropyrazolo[1,5-a]pyridin-2-yl)-1,4,6,7-tetrahydro-5H-imidazo[4,5-c]pyridin-5-yl)methanone], the AC50 is less than 500 nM. Next, `Cc1nnc(N2CCc3[nH]cnc3[C@H]2c2cc3c(C(C)C)cccn3n2)o1` [Example 2083, (S)-2-(4-(4-isopropylpyrazolo[1,5-a]pyridin-2-yl)-1,4,6,7-tetrahydro-5H-imidazo[4,5-c]pyridin-5-yl)-5-methyl-1,3,4-oxadiazole]: less than 500 nM; `CC(C)c1cccn2nc([C@H]3c4nc[nH]c4CCN3c3nnc(C(F)F)o3)cc12` [Example 2084, (R)-2-(difluoromethyl)-5-(4-(4-isopropylpyrazolo[1,5-a]pyridin-2-yl)-1,4,6,7-tetrahydro-5H-imidazo[4,5-c]pyridin-5-yl)-1,3,4-oxadiazole]: greater than 5000 nM. In the case of `CC(C)c1cccn2nc([C@@H]3c4nc[nH]c4CCN3c3nnc(C(F)F)o3)cc12` [Example 2085, (S)-2-(difluoromethyl)-5-(4-(4-isopropylpyrazolo[1,5-a]pyridin-2-yl)-1,4,6,7-tetrahydro-5H-imidazo[4,5-c]pyridin-5-yl)-1,3,4-oxadiazole], the concentration at half-maximal activity (AC50) was less than 500 nM. Consider `Fc1ccc(-c2nnc(N3CCc4[nH]cnc4[C@H]3c3cc4cccc(Cl)n4n3)o2)cc1` [Example 2086, (S)-2-(4-(7-chloropyrazolo[1,5-a]pyridin-2-yl)-1,4,6,7-tetrahydro-5H-imidazo[4,5-c]pyridin-5-yl)-5-(4-fluorophenyl)-1,3,4-oxadiazole], for which the AC50 is less than 500 nM.

As for `Fc1cccc(F)c1-c1nnc(N2CCc3[nH]cnc3[C@H]2c2cc3cccc(Cl)n3n2)o1` [Example 2089, (S)-2-(4-(7-chloropyrazolo[1,5-a]pyridin-2-yl)-1,4,6,7-tetrahydro-5H-imidazo[4,5-c]pyridin-5-yl)-5-(2,6-difluorophenyl)-1,3,4-oxadiazole], the AC50 was less than 500 nM. With `Cc1cccc2cc([C@@H]3c4nc[nH]c4CCN3c3nnc(-c4c(F)cccc4F)o3)nn12` [Example 2091, (S)-2-(2,6-difluorophenyl)-5-(4-(7-methylpyrazolo[1,5-a]pyridin-2-yl)-1,4,6,7-tetrahydro-5H-imidazo[4,5-c]pyridin-5-yl)-1,3,4-oxadiazole], the AC50 was less than 500 nM. Turning to `Fc1cccc(F)c1-c1nnc(N2CCc3[nH]cnc3[C@@H]2c2cc3cccc(C(F)F)n3n2)o1` [Example 2092, (R)-2-(4-(7-(difluoromethyl)pyrazolo[1,5-a]pyridin-2-yl)-1,4,6,7-tetrahydro-5H-imidazo[4,5-c]pyridin-5-yl)-5-(2,6-difluorophenyl)-1,3,4-oxadiazole], the AC50 was greater than 5000 nM. On to `Fc1cccc(F)c1-c1nnc(N2CCc3[nH]cnc3[C@H]2c2cc3cccc(C(F)F)n3n2)o1` [Example 2093, (S)-2-(4-(7-(difluoromethyl)pyrazolo[1,5-a]pyridin-2-yl)-1,4,6,7-tetrahydro-5H-imidazo[4,5-c]pyridin-5-yl)-5-(2,6-difluorophenyl)-1,3,4-oxadiazole], for which the AC50 is less than 500 nM.

On to `FC(F)(F)c1ccc(N2CCc3[nH]cnc3[C@H]2c2cc3c(Cl)cccn3n2)nc1` [Example 2095, (S)-4-(4-chloropyrazolo[1,5-a]pyridin-2-yl)-5-(5-(trifluoromethyl)pyridin-2-yl)-4,5,6,7-tetrahydro-1H-imidazo[4,5-c]pyridine], for which the half-maximal activity concentration (AC50) is less than 500 nM. Take `Cc1cccc2cc([C@H]3c4nc[nH]c4CCN3c3ccc(C(F)(F)F)cn3)nn12` [Example 2096, (R)-4-(7-methylpyrazolo[1,5-a]pyridin-2-yl)-5-(5-(trifluoromethyl)pyridin-2-yl)-4,5,6,7-tetrahydro-1H-imidazo[4,5-c]pyridine]: the AC50 is greater than 5000 nM.

As to `O=C(c1cnc(C2CC2)o1)N1CCc2[nH]cnc2[C@H]1c1cc2c(C(F)F)cccn2n1` [Example 2102, (S)-(2-cyclopropyloxazol-5-yl)(4-(4-(difluoromethyl)pyrazolo[1,5-a]pyridin-2-yl)-1,4,6,7-tetrahydro-5H-imidazo[4,5-c]pyridin-5-yl)methanone], the AC50 was less than 500 nM. In the case of `CC(C)(C)c1ncc(C(=O)N2CCc3[nH]cnc3[C@H]2c2cc3c(C(F)F)cccn3n2)o1` [Example 2104, (S)-(2-(tert-butyl)oxazol-5-yl)(4-(4-(difluoromethyl)pyrazolo[1,5-a]pyridin-2-yl)-1,4,6,7-tetrahydro-5H-imidazo[4,5-c]pyridin-5-yl)methanone], the half-maximal activity concentration (AC50) was less than 500 nM. Consider `CC(C)(F)c1ncc(C(=O)N2CCc3[nH]cnc3[C@H]2c2cc3c(C(F)F)cccn3n2)o1` [Example 2106, (S)-(4-(4-(difluoromethyl)pyrazolo[1,5-a]pyridin-2-yl)-1,4,6,7-tetrahydro-5H-imidazo[4,5-c]pyridin-5-yl)(2-(2-fluoropropan-2-yl)oxazol-5-yl)methanone], for which the AC50 is less than 500 nM.
